In patent US10513521B2, “Compositions and methods for inhibiting BMP” (The Brigham and Women's Hospital, Inc., priority 2014, dated 2019):
Read-outs that look alike come from different tables or passages of the source.

Experiments:
ALK4 = target: T1, ALK4 (Homo sapiens, UniProt P36896); test: TR-FRET enzymatic ALK kinase assay, ALK4
T1 sequence (P36896 24-505): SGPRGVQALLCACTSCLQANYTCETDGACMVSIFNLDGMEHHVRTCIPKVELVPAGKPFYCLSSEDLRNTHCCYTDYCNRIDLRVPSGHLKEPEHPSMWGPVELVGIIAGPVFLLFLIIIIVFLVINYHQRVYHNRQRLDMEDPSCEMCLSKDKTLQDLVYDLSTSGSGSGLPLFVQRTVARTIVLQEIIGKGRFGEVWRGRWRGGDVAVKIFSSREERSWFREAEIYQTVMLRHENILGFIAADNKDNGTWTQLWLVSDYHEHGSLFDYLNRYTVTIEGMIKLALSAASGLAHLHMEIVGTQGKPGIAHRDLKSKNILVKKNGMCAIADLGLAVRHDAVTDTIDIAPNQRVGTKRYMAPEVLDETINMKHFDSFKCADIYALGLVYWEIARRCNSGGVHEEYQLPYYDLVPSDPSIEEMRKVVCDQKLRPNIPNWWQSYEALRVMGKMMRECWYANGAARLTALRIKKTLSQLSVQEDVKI
Protocol: (§1) Briefly, the ALKs enzymatic assay was initiated by dispense 2.5 μl enzyme in 1× kinase reaction buffer. The assay plate was then added with compounds followed by incubation at room temperature for 10 minutes. Then 2.5 μl/well substrate was added.

ALK5 = target: T2, ALK5 (Homo sapiens, UniProt P36897); test: TR-FRET enzymatic ALK kinase assay, ALK5
T2 sequence (P36897 34-503): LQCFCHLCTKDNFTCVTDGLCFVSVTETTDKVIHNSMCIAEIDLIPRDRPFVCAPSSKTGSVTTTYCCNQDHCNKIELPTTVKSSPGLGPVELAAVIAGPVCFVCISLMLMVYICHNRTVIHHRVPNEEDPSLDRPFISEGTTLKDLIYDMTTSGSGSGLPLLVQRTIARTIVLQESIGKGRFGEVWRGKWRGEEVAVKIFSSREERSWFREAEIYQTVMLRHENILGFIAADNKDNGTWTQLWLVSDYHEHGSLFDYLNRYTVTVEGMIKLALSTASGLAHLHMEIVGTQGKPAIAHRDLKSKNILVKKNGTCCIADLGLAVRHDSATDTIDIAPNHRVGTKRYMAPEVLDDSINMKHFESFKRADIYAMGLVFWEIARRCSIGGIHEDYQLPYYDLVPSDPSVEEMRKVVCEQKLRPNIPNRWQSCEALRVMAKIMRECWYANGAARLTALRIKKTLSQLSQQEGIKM
Protocol: Six ALK kinase enzyme assays were developed for determination of compound activities on ALK1, ALK2, ALK3, ALK4, ALK5 and ALK6.
as §1

ALK3 = ALK3 (Homo sapiens, UniProt P36894); test: TR-FRET enzymatic ALK kinase assay, ALK3
ALK3, sequence (P36894 24-532): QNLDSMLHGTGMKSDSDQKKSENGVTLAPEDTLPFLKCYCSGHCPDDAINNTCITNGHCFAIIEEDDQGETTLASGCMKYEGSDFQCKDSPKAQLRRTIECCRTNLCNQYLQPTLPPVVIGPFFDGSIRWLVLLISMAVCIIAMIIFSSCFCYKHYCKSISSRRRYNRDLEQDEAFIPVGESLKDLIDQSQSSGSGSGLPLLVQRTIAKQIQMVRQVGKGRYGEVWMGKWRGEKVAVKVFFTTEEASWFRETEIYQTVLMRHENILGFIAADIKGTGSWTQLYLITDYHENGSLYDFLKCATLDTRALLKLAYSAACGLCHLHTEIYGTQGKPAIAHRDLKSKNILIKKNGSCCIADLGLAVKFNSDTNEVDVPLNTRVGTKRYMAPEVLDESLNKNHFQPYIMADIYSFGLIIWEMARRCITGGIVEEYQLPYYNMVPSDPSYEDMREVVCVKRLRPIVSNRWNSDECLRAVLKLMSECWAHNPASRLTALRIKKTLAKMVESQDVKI
Protocol: as §1

ALK2 = target: T3, ALK2 (Homo sapiens, UniProt Q04771); test: TR-FRET enzymatic ALK kinase assay, ALK2
T3 sequence (Q04771 21-509): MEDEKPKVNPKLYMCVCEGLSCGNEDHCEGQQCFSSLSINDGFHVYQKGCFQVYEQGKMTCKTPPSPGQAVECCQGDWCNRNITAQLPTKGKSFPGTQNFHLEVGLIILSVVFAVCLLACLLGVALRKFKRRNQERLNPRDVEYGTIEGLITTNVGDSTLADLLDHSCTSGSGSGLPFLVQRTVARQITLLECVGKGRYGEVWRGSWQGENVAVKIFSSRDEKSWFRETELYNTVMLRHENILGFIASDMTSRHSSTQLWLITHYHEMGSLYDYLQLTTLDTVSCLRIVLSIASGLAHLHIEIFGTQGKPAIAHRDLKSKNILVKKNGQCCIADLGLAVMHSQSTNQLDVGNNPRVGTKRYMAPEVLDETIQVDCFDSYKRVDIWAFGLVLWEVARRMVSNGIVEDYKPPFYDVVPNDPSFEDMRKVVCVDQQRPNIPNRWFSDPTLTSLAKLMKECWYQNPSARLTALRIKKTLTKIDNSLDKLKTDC
Protocol: as §1

ALK6 = ALK6 (Homo sapiens, UniProt O00238); test: TR-FRET enzymatic ALK kinase assay, ALK6
ALK6, sequence (O00238 14-502): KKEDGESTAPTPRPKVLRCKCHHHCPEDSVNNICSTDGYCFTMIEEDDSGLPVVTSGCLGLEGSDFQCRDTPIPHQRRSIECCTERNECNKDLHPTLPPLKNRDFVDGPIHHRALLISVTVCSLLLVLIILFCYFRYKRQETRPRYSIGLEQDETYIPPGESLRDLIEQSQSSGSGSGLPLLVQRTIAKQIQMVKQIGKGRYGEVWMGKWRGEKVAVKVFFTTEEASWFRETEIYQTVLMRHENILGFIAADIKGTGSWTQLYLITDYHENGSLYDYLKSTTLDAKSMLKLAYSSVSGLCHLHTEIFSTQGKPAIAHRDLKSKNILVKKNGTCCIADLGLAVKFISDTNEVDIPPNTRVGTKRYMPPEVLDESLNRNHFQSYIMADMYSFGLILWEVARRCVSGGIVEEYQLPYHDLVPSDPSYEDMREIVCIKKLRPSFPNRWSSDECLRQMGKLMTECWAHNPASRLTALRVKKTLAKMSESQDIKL
Protocol: as §1

ALK1 = ALK1 (Homo sapiens, UniProt P37023); test: TR-FRET enzymatic ALK kinase assay, ALK1
ALK1, sequence (P37023 22-503): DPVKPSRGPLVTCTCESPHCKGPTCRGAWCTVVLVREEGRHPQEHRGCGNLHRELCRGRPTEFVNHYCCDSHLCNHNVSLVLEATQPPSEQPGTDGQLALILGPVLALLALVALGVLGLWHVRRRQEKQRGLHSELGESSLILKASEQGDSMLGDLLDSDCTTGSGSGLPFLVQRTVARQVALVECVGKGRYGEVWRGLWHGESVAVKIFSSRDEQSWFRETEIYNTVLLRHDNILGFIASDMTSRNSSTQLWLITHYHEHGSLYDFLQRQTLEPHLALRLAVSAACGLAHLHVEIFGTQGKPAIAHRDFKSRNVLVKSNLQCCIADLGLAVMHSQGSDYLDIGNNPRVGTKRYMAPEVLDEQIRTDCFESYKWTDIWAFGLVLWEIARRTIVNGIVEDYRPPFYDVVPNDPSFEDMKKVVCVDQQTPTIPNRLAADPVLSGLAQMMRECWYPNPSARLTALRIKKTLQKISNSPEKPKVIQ
Protocol: as §1

Molecule | IC50 (ALK4) [nM] | IC50 (ALK5) [nM] | IC50 (ALK3) [nM] | IC50 (ALK2) [nM] | IC50 (ALK6) [nM] | IC50 (ALK1) [nM] | IC50 (ALK4; read-out: Kinase Assay ALK4, enzyme assay) [nM] | IC50 (ALK5; read-out: Kinase Assay ALK5, enzyme assay) [nM] | IC50 (ALK3; read-out: Kinase Assay ALK3, enzyme assay) [nM] | IC50 (ALK2; read-out: Kinase Assay ALK2, enzyme assay) [nM] | IC50 (ALK6; read-out: Kinase Assay ALK6, enzyme assay) [nM] | IC50 (ALK1; read-out: Kinase Assay ALK1, enzyme assay) [nM]
NC1(c2ccc(-c3cnc4c(-c5ccc(S(N)(=O)=O)c6ccccc56)cnn4c3)cc2)CC1 [Compound 192, 4-(6-(4-(1-aminocyclopropyl)phenyl)pyrazolo[1,5-a]pyrimidin-3-yl)naphthalene-1-sulfonamide] | > 10000 | > 10000 | 4800 | 50 | > 10000 | 650 | – | – | – | – | – | –
C[C@@H]1CNC[C@H](C)N1c1ccc(-c2cnc3c(-c4cc(C(F)(F)F)cc(S(C)(=O)=O)c4)cnn3c2)cc1 [Compound 193, 6-(4-((2R,6S)-2,6-dimethylpiperazin-1-yl)phenyl)-3-(3-(methylsulfonyl)-5-(trifluoromethyl)phenyl)pyrazolo[1,5-a]pyrimidine] | > 10000 | > 10000 | > 10000 | 550 | 1200 | 7500 | – | – | – | – | – | –
CS(=O)(=O)c1cccc(-c2cnn3cc(-c4ccc(OC5(CN6CCC(O)CC6)CC5)cc4)cnc23)c1 [Compound 194, 1-((1-(4-(3-(3-(methylsulfonyl)phenyl)pyrazolo[1,5-a]pyrimidin-6-yl)phenoxy)cyclopropyl)methyl)piperidin-4-ol] | > 10000 | > 10000 | 870 | 20 | > 10000 | 230 | – | – | – | – | – | –
CS(=O)(=O)c1cccc(-c2cnn3cc(-c4ccc(OC5(CN6CCC(O)C6)CC5)cc4)cnc23)c1 (stereo not drawn) [Compound 195, 1-((1-(4-(3-(3-(methylsulfonyl)phenyl)pyrazolo[1,5-a]pyrimidin-6-yl)phenoxy)cyclopropyl)methyl)pyrrolidin-3-ol] | > 10000 | > 10000 | 970 | 22 | > 10000 | 270 | – | – | – | – | – | –
C[C@H](O)c1cccc(-c2cnn3cc(-c4ccc(OC5(CN6C7CCC6CC7)CC5)cc4)cnc23)c1 [Compound 196, (S)-1-(3-(6-(4-(1-(7-azabicyclo[2.2.1]heptan-7-ylmethyl)cyclopropoxy)phenyl)pyrazolo[1,5-a]pyrimidin-3-yl)phenyl)ethanol] | > 10000 | > 10000 | 2500 | 24 | 8900 | 310 | – | – | – | – | – | –
C[C@H](O)c1cccc(-c2cnn3cc(-c4ccc(OC5(CN6CCC7(CC6)CNC7)CC5)cc4)cnc23)c1 [Compound 197, (S)-1-(3-(6-(4-(1-(2,7-diazaspiro[3.5]nonan-7-ylmethyl)cyclopropoxy)phenyl)pyrazolo[1,5-a]pyrimidin-3-yl)phenyl)ethanol] | > 10000 | > 10000 | 2000 | 52 | > 10000 | 500 | – | – | – | – | – | –
C[C@H](O)c1cccc(-c2cnn3cc(-c4ccc(OC5(CN6CCCC6)CC5)cc4)cnc23)c1 [Compound 198, (S)-1-(3-(6-(4-(1-(pyrrolidin-1-ylmethyl)cyclopropoxy)phenyl)pyrazolo[1,5-a]pyrimidin-3-yl)phenyl)ethanol] | > 10000 | > 10000 | 1200 | 30 | > 10000 | 710 | – | – | – | – | – | –
C[C@H](O)c1cccc(-c2cnn3cc(-c4ccc(OC5(CN6CCCCC6)CC5)cc4)cnc23)c1 [Compound 199, (S)-1-(3-(6-(4-(1-(piperidin-1-ylmethyl)cyclopropoxy)phenyl)pyrazolo[1,5-a]pyrimidin-3-yl)phenyl)ethanol] | > 10000 | > 10000 | 620 | 25 | 9800 | 610 | – | – | – | – | – | –
C[C@H](O)c1cccc(-c2cnn3cc(-c4ccc(OCCN5CCCC5)cc4)cnc23)c1 [Compound 200, (S)-1-(3-(6-(4-(2-(pyrrolidin-1-yl)ethoxy)phenyl)pyrazolo[1,5-a]pyrimidin-3-yl)phenyl)ethanol] | > 10000 | > 10000 | 1200 | 68 | 2300 | 1300 | – | – | – | – | – | –
C[C@H](O)c1cccc(-c2cnn3cc(-c4ccc(OCCN5CCCCC5)cc4)cnc23)c1 [Compound 201, (S)-1-(3-(6-(4-(2-(piperidin-1-yl)ethoxy)phenyl)pyrazolo[1,5-a]pyrimidin-3-yl)phenyl)ethanol] | > 10000 | > 10000 | 1000 | 43 | > 10000 | 1000 | – | – | – | – | – | –
NS(=O)(=O)c1ccc(-c2cnn3cc(-c4ccc(OC(F)(F)CN5CCCCC5)cc4)cnc23)c2ccccc12 [Compound 206, 4-(6-(4-(1,1-difluoro-2-(piperidin-1-yl)ethoxy)phenyl)pyrazolo[1,5-a]pyrimidin-3-yl)naphthalene-1-sulfonamide] | > 10000 | > 10000 | > 10000 | 1200 | > 10000 | 4600 | – | – | – | – | – | –
NS(=O)(=O)c1ccc(-c2cnn3cc(-c4ccc(OC5(CN6CCCC6)CC5)cc4)cnc23)c2ccccc12 [Compound 207, 4-(6-(4-(1-(pyrrolidin-1-ylmethyl)cyclopropoxy)phenyl)pyrazolo[1,5-a]pyrimidin-3-yl)naphthalene-1-sulfonamide] | > 10000 | > 10000 | > 10000 | 16 | > 10000 | 170 | – | – | – | – | – | –
NS(=O)(=O)c1ccc(-c2cnn3cc(-c4ccc(OC5(CN6CCCCC6)CC5)cc4)cnc23)c2ccccc12 [Compound 208, 4-(6-(4-(1-(piperidin-1-ylmethyl)cyclopropoxy)phenyl)pyrazolo[1,5-a]pyrimidin-3-yl)naphthalene-1-sulfonamide] | > 10000 | > 10000 | > 10000 | 15 | > 10000 | 200 | – | – | – | – | – | –
NC1(c2ccc(-c3cnc4c(-c5ccc(S(N)(=O)=O)c6ccccc56)cnn4c3)cc2)CNC1 [Compound 209, 4-(6-(4-(3-aminoazetidin-3-yl)phenyl)pyrazolo[1,5-a]pyrimidin-3-yl)naphthalene-1-sulfonamide] | > 10000 | > 10000 | > 10000 | 69 | > 10000 | 340 | – | – | – | – | – | –
(3R)-1-((1-(4-(3-(3-(1-amino-2,2,2-trifluoroethyl)phenyl)pyrazolo[1,5-a]pyrimidin-6-yl)phenoxy)cyclopropyl)methyl)-3-methylpyrrolidin-3-ol [Compound 185] | – | – | – | – | – | – | > 10000 | > 10000 | 1800 | 44 | > 10000 | 540
